What was measured:
Format in all cases: in vivo
[1] = test system: green foxtail (Setaria viridis, SETVI); assay: Pre-emerge test, greenhouse herbicide activity screening; conditions: rated 14 days after application, 0 = no damage, 100 = complete death
Method in brief: (§1)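 Compounds in acetone were track-sprayed at 187 l/ha, 15–1000 g ai/ha, onto sandy loam pots. Pre-emerge seeds were sown one day before spraying, with surface watering afterwards. Post-emerge plants were at the 2–3 leaf stage and sprayed with 0.25% v/v non-ionic surfactant. Injury was rated 0–100 at 14 days.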

[2] = test system: barnyardgrass (Echinochloa crus-galli, ECHCG); assay: as above; conditions: rated 14 days after application, 0 = no damage, 100 = complete death
Method in brief: as §1

[3] = test system: velvetleaf (Abutilon theophrasti, ABUTH); assay: as above; conditions: rated 14 days after application, 0 = no damage, 100 = complete death
Method in brief: as §1

[4] = test system: sicklepod (Cassia obtusifolia, CASOB); assay: as above; conditions: rated 14 days after application, 0 = no damage, 100 = complete death
Method in brief: as §1

[5] = test system: large crabgrass (Digitaria sanguinalis, DIGSA); assay: as above; conditions: rated 14 days after application, 0 = no damage, 100 = complete death
Method in brief: as §1

[6] = test system: johnsongrass (Sorghum halepense, SORHA); assay: as above; conditions: rated 14 days after application, 0 = no damage, 100 = complete death
Method in brief: as §1

[7] = test system: ivyleaf morningglory (Ipomoea hederacea, IPOHE); assay: as above; conditions: rated 14 days after application, 0 = no damage, 100 = complete death
Method in brief: as §1

[8] = test system: lambsquarters (Chenopodium album, CHEAL); assay: as above; conditions: rated 14 days after application, 0 = no damage, 100 = complete death
Method in brief: as §1

[9] = test system: field corn (Zea mays L., var. Dekalb 535, CORN); assay: Post-emerge test, crop safety; conditions: post-emerge, 14 days after application, rating scale 0-100
Method in brief: as §1

[10] = test system: upland rice (Oryza sp., var. Tebonnet, RICE); assay: Post-emerge test, crop safety; conditions: post-emerge, 14 days after application, rating scale 0-100
Method in brief: as §1

[11] = test system: green foxtail (Setaria viridis, SETVI); assay: Post-emerge test, greenhouse herbicide activity screening; conditions: post-emerge, 14 days after application, rating scale 0-100
Method in brief: (§2)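 Each test used a mechanized track sprayer delivering 187 l/ha of acetone solution at 15–1000 g ai/ha. Post-emerge foliage at 2–3 leaves was treated with added 0.25% v/v non-ionic surfactant and bottom-watered only. Injury was assessed on day 14, where 100 means total kill.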

[12] = test system: barnyardgrass (Echinochloa crus-galli, ECHCG); assay: as above; conditions: post-emerge, 14 days after application, rating scale 0-100
Method in brief: as §2

[13] = test system: velvetleaf (Abutilon theophrasti, ABUTH); assay: as above; conditions: post-emerge, 14 days after application, rating scale 0-100
Method in brief: as §2

[14] = test system: sicklepod (Cassia obtusifolia, CASOB); assay: as above; conditions: post-emerge, 14 days after application, rating scale 0-100
Method in brief: as §2

[15] = test system: large crabgrass (Digitaria sanguinalis, DIGSA); assay: as above; conditions: post-emerge, 14 days after application, rating scale 0-100
Method in brief: as §2

[16] = test system: johnsongrass (Sorghum halepense, SORHA); assay: as above; conditions: post-emerge, 14 days after application, rating scale 0-100
Method in brief: as §2

[17] = test system: ivyleaf morningglory (Ipomoea hederacea, IPOHE); assay: as above; conditions: post-emerge, 14 days after application, rating scale 0-100
Method in brief: as §2

[18] = test system: redroot pigweed (Amaranthus retroflexus, AMARE); assay: as above; conditions: post-emerge, 14 days after application, rating scale 0-100
Method in brief: as §2

[19] = test system: lambsquarters (Chenopodium album, CHEAL); assay: as above; conditions: post-emerge, 14 days after application, rating scale 0-100
Method in brief: as §2

[20] = test system: field corn (Zea mays L., var. Dekalb 535, CORN); assay: Pre-emerge test, crop safety; conditions: rated 14 days after application, 0 = no damage, 100 = complete death
Method in brief: (§3)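 Sandy loam pots; pre-emerge: sown 1 d pre-spray, surface-watered after, then bottom-watered. Post-emerge: sown 8–21 d before, 2–3 leaf stage, + 0.25% v/v NIS, bottom-watered. Acetone, 187 l/ha track spray, 15–1000 g ai/ha. 0–100 injury score, day 14.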

[21] = test system: upland rice (Oryza sp., var. Tebonnet, RICE); assay: Pre-emerge test, crop safety; conditions: rated 14 days after application, 0 = no damage, 100 = complete death
Method in brief: as §3

[22] = test system: redroot pigweed (Amaranthus retroflexus, AMARE); assay: Pre-emerge test, greenhouse herbicide activity screening; conditions: rated 14 days after application, 0 = no damage, 100 = complete death
Method in brief: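 Herbicidal damage is scored 0 (none) to 100 (complete plant death) two weeks after a simulated field spray. Rates span 15–1000 g ai/ha, delivered in acetone at 187 l/ha. For post-emergence treatments, plants have 2–3 leaves and the spray carries 0.25% v/v non-ionic surfactant.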

## COc1c(Cl)cc(F)c(-n2c(=O)cc(C(F)(F)F)n(C)c2=O)c1NC(=O)C=Cc1ccccc1 [2-78]
[1]; 63 g ai/ha
  Pre-emerge Herbicidal Activity, phytotoxicity rating (0-100), SETVI: 90
[1]; 250 g ai/ha
  Pre-emerge Herbicidal Activity, phytotoxicity rating (0-100), SETVI: 100
[2]; 63 g ai/ha
  Pre-emerge Herbicidal Activity, phytotoxicity rating (0-100), ECHCG: 10
[2]; 250 g ai/ha
  Pre-emerge Herbicidal Activity, phytotoxicity rating (0-100), ECHCG: 100
[3]; 63 g ai/ha
  Pre-emerge Herbicidal Activity, phytotoxicity rating (0-100), ABUTH: 100
[3]; 250 g ai/ha
  Pre-emerge Herbicidal Activity, phytotoxicity rating (0-100), ABUTH: 100
[4]; 63 g ai/ha
  Pre-emerge Herbicidal Activity, phytotoxicity rating (0-100), CASOB: 100
[4]; 250 g ai/ha
  Pre-emerge Herbicidal Activity, phytotoxicity rating (0-100), CASOB: 100
[5]; 63 g ai/ha
  Pre-emerge Herbicidal Activity, phytotoxicity rating (0-100), DIGSA: 30
[5]; 250 g ai/ha
  Pre-emerge Herbicidal Activity, phytotoxicity rating (0-100), DIGSA: 100
[6]; 63 g ai/ha
  Pre-emerge Herbicidal Activity, phytotoxicity rating (0-100), SORHA: 10
[6]; 250 g ai/ha
  Pre-emerge Herbicidal Activity, phytotoxicity rating (0-100), SORHA: 80
[7]; 63 g ai/ha
  Pre-emerge Herbicidal Activity, phytotoxicity rating (0-100), IPOHE: 20
[7]; 250 g ai/ha
  Pre-emerge Herbicidal Activity, phytotoxicity rating (0-100), IPOHE: 100
[8]; 63 g ai/ha
  Pre-emerge Herbicidal Activity, phytotoxicity rating (0-100), CHEAL: 100
[8]; 250 g ai/ha
  Pre-emerge Herbicidal Activity, phytotoxicity rating (0-100), CHEAL: 100
[9]; 63 g ai/ha
  phytotoxicity rating CORN: 25
[9]; 250 g ai/ha
  phytotoxicity rating CORN: 30
[10]; 63 g ai/ha
  phytotoxicity rating RICE: 50
[10]; 250 g ai/ha
  phytotoxicity rating RICE: 65
[11]; 63 g ai/ha
  phytotoxicity rating SETVI: 30
[11]; 250 g ai/ha
  phytotoxicity rating SETVI: 30
[12]; 63 g ai/ha
  phytotoxicity rating ECHCG: 10
[12]; 250 g ai/ha
  phytotoxicity rating ECHCG: 10
[13]; 63 g ai/ha
  phytotoxicity rating ABUTH: 100
[13]; 250 g ai/ha
  phytotoxicity rating ABUTH: 100
[14]; 63 g ai/ha
  phytotoxicity rating CASOB: 70
[14]; 250 g ai/ha
  phytotoxicity rating CASOB: 100
[15]; 63 g ai/ha
  phytotoxicity rating DIGSA: 0
[15]; 250 g ai/ha
  phytotoxicity rating DIGSA: 0
[16]; 63 g ai/ha
  phytotoxicity rating SORHA: 0
[16]; 250 g ai/ha
  phytotoxicity rating SORHA: 10
[17]; 63 g ai/ha
  phytotoxicity rating IPOHE: 80
[17]; 250 g ai/ha
  phytotoxicity rating IPOHE: 100
[18]; 63 g ai/ha
  phytotoxicity rating AMARE: 100
[18]; 250 g ai/ha
  phytotoxicity rating AMARE: 100
[19]; 63 g ai/ha
  phytotoxicity rating CHEAL: 100
[19]; 250 g ai/ha
  phytotoxicity rating CHEAL: 100
[20]; 63 g ai/ha
  Pre-emerge phytotoxicity rating (0-100), crop damage, CORN: 0
[20]; 250 g ai/ha
  Pre-emerge phytotoxicity rating (0-100), crop damage, CORN: 10
[21]; 63 g ai/ha
  Pre-emerge phytotoxicity rating (0-100), crop damage, RICE: 40
[21]; 250 g ai/ha
  Pre-emerge phytotoxicity rating (0-100), crop damage, RICE: 95
[22]; 63 g ai/ha
  Pre-emerge Herbicidal Activity, phytotoxicity rating (0-100), AMARE: 100
[22]; 250 g ai/ha
  Pre-emerge Herbicidal Activity, phytotoxicity rating (0-100), AMARE: 100
